In US20110177046A1, “DITHIAZOLIDINE AND THIAZOLIDINE DERIVATIVES AS ANTICANCER AGENTS” (Betagenon AB, priority 2007, published 2011):

What was measured:
[1] = test system: Ob/Ob mice; experiment: Test C insulin measurement study in diabetic Ob/Ob mice, Method (II); format: in vivo; settings: fed Ob/Ob mice, 30 mg/kg gavage twice daily for 18 days, vs vehicle
Description: The aim of this study was to verify the efficacy of compound of Example 1 in the diabetic ob/ob mouse with regard to correction of the metabolic disorder hyperinsulinemia. Ob/ob mice were gavaged twice daily with compound of Example 1 and the effect of the compound on levels of plasma insulin were assessed and the results were compared to a concurrent control group gavaged with vehicle.
The compound of Example 1 was obtained from Isosep AB, Uppsala, Sweden. A stock solution of 6 mg/ml was prepared by dissolving the compound in PBS, pH 7.4, 1% DMSO and 0.5% methyl cellulose.
Male B6.V-Lep^ob/JBomTac (model number OB-M) mice were bred and delivered by Taconic. Animals were housed in Umea University animal facility in transparent polycarbonate cages, with wood chip bedding at a 12 h light/darkness cycle, a temperature of […], and a relative humidity of −50% throughout the accommodation and dosing periods. 5 animals were housed in each cage with free access to standard rodent chow (CRM(E)Rodent, Special Diets Services, Scanbur BK, Sweden) and tap water. […]
(§1) In vivo potency and efficacy were determined in groups of 10 mice. […]
Plasma insulin levels were determined according to the manufacturer's recommendations with a rat insulin ELISA kit using mouse insulin standard (Crystal Chem Inc).
(§2) Data in the figures are presented as means±SEM. P values were calculated using the Student's t-test. […]

[2] = test system: MDA-MB-231 human breast cancer cell lines; experiment: Test A cell proliferation assay (BrdU incorporation); format: cell-based; settings: MDA-MB-231 cells; for BrdU incorporation relative to vehicle control (1 unit): approximate
Description: The cell line was propagated in D-MEM (Gibco 21885) supplemented with 10% Foetal calf serum. 15000 cells per well were seeded in 96 well plates and incubated overnight. The culture media was changed to serum-free D-MEM for 24 h. […] After 18 h incubation, BrdU was added according to manufacturer's recommendations. After 6 h incubation in the presence of BrdU, the culture media was removed and BrdU incorporation was measured using “Cell Proliferation ELISA, BrdU colorimetric” Roche (11647229001) according to manufacturer's recommendations.

[3] = test system: human primary mesangial cells; experiment: Test G amelioration of TGFβ dependent collagen IV secretion (ELISA); format: cell-based; settings: 2.5 μM with TGFβ 0.5 ng/ml, 48 h, ELISA absorbance
Description: Human primary mesangial cells (Lonza) were seeded at a density of 57 00 cells per well in a 24 well plate in DMEM (Gibco 212885) supplemented with Non essential amino acids (Gibco 11140) Penicillin/streptomycin (Gibco 15140-122) and 10% Foetal Calf Serum (FBS) (Gibco 10500-064)
After 24 h incubation, media was changed to DMEM (Gibco 212885) supplemented with Non essential amino acids (Gibco 11140) Penicillin/streptomycin (Gibco 15140-122) and 0.5% Foetal Calf Serum (FBS)(Gibco 10500-064) as the experimental media. After 24 h incubation, media was changed to experimental media containing either vehicle or […] (0.5 ng/ml), compound of Example 1 (2.5 μM), or TGFβ (0.5 ng/ml) and compound of Example 1 (2.5 μM) in combination.
After 48 h of exposure the supernatant from each well was collected and subjected to ELISA analysis.
Using Nunc Maxisorp microtiter plates, duplicate samples of conditioned cell culture medium (diluted 1:10) was used for coating ([…], 18 h, +4° C.). […] After 3× washing in ELISA buffer, reactions were visualised using 100 μl/well TMB liquid substrate system for ELISA (Sigma) After maximum 30 min reactions were stopped by addition of 25 μl 1 M H2SO4 and immediately analysed at 450 nm using a Multiskan EX plate reader (Thermo Labsystems).

[4] = test system: MDA-MB-231 human breast cancer cells xenograft tumors; experiment: Test B in vivo mouse model Test 2, tumor weight; design: species or system Athymic BALB/cA nude mice; settings: 8 mg/kg i.p. once daily for 27 days; vehicle control approximately 225 mg
Description: 5 week old Athymic BALB/cA nude mice are delivered from Taconic (Denmark) and kept under barrier conditions for 1 week acclimatisation. At 6 weeks, 17 mice are injected subcutaneously on the flank with 1.8×10^6 MDA-MB-231 human breast cancer cells (LGC Promochem-ATCC) in a 50/50 v/v solution of phosphate buffered saline (PBS) (Gibco 10010-015, Invitrogen) Matrigel HC (BD Biosciences).
After 11 days, palpable tumors are observed in 16 mice. 2 mice are sacrificed and the tumors dissected and examined. 2 groups of 7 mice each are treated once daily by intraperitoneal injections of 1-10 mg/kg bodyweight of test compound in 79% PBS/20% Solutol HS 15 (BASF)/1% DMSO or vehicle control respectively for 5-30 days. The mice are sacrificed by cervical dislocation and tumors are dissected.
The above test procedure was followed, but 16 (rather than 17) mice were injected subcutaneously.
2 groups of 8 mice each were treated once daily by intraperitoneal injections of 8 mg/kg bodyweight of compound of Example 1 in 79% PBS/20% Solutol HS 15(BASF)/1% DMSO or vehicle control respectively for 27 days. Tumors were dissected and weighed at the end of the experiment.

[5] = test system: acetyl-CoA carboxylase (ACC); experiment: Test F phosphorylation of ACC (Ser 79), Western blot in HepG2 cells; format: cell-based, human; settings: 10 μM
Description: (§3) The compound of Example 1 was obtained from Isosep AB, Uppsala, Sweden. A stock solution of 10 mM was prepared by dissolving the compound in 100% DMSO.
(§4) Human hepatoma HepG2 cells were purchased from American Type Culture Collection (ATCC, Manassas, USA). HepG2 cells were cultured in DMEM (Gibco 212885) containing 10% fetal bovine serum (Gibco 10500-064), 100 units/ml penicillin, 100 μg/ml streptomycin (Gibco 15140-122) and 1× non essential amino acids (Gibco 11140). The cells were incubated in a humidified atmosphere of 5% CO2 at 37° C. and passaged every 3 days by trypsinization. For experiments, HepG2 cells were incubated in complete medium with 10% fetal bovine serum in 60 or 100-mm-diameter dishes and grown to ˜70-80% confluence and subjected to assays after overnight serum depletion (16 h). After incubation in serum-free DMEM, the compound of Example 1 that was dissolved in DMSO was added to the medium.
Cells were lysed in 100 mM TRIS pH 6.8, 2% w/v Sodium dodecyl sulfate (SDS), 10 mM NaF, 10 mM β-glycerophosphate, 1 mM Na Vanadate. Protein concentration of the lysates was measured by BCA protein assay kit (Pierce #23225). […]

[6] = test system: Ob/Ob mice; experiment: Test E plasma triglyceride study in diabetic Ob/Ob mice, Method (II); format: in vivo; settings: fed Ob/Ob mice, 15 mg/kg gavage twice daily for 20 days, vs vehicle
Description: The aim of this study was to verify the efficacy of compound of Example 1 in the diabetic ob/ob mouse with regard to correction of the metabolic disorder hypertriglyceridemia. Ob/ob mice were gavaged twice daily with compound of example 1 and the effect of the compound on levels of plasma triglycerides were assessed and the results were compared to a concurrent control group gavaged with vehicle.
Male B6.V-Lep^ob/JUmeaTac (model number UMEA-M) mice were bred and delivered by Taconic. Animals were housed in Umea University animal facility in transparent polycarbonate cages, with wood chip bedding at a 12 h light/darkness cycle, a temperature of […], and a relative humidity of −50% throughout the accommodation and dosing periods. 5 animals were housed in each cage with free access to standard rodent chow (CRM(E)Rodent, Special Diets Services, Scanbur BK, Sweden) and tap water. All animal experiments were approved by the Local Ethics Review Committee on Animal Experiments, Umea Region.
as §1
Plasma triglycerides were determined with an enzymatic colorimetric assay (TRO100, Sigma-Aldrich) according to the manufacturer's recommendations.
as §2

[7] = test system: AMPK; experiment: Test F activation of AMPK, Western blot of phospho-AMPKα Thr172 in HepG2 cells; format: cell-based, human; settings: 10 μM
Description: as §3, §4
Cells were lysed in 100 mM TRIS pH 6.8, 2% w/v Sodium dodecyl sulfate (SDS), 10 mM NaF, 10 mM β-glycerophosphate, 1 mM Na Vanadate. Protein concentration of the lysates was measured by BCA protein assay kit (Pierce #23225). 25 μg protein was loaded in each well of a 4-12% bis/tris gel for AMPK detection (Criterion precast gel Bio-Rad #345-0124) or 5% Tris-HCl gel for acetyl-CoA carboxylase (ACC) detection (Criterion Precast gel Bio-Rad #345-0002) and run according to manufacturers recommendation. Gels were blotted onto nitrocellulose filters (Hybond-C extra Amersham #RPN203E). Filters were blocked in 20 mM TRIS pH 7.5, 137 mM NaCl, […] and 5% w/v fat free powdered milk for 30 min. Filters were incubated overnight in blocking solution with phospho-AMPKαThr172, AMPKα or phospho-ACC (Ser 79) (Cell signalling #2531, #2532 and #3661). Filters were washed in 20 mM TRIS pH 7.5, 137 mM NaCl, […] for 3×5 min. Filters were incubated in blocking solution with secondary antibody, peroxidase-conjugated Goat anti rabbit IgG (Jackson immunoResearch #111-035-003) in room temperature for 1 h. Filters were washed as above for 3×10 min. […]

[8] = test system: Ob/Ob mice; experiment: Test D blood glucose measurement study in diabetic Ob/Ob mice, Method (II); format: in vivo; settings: 30 mg/kg gavage twice daily for 18 days, vs vehicle
Description: The aim of this study was to verify the efficacy of compound of Example 1 in the diabetic ob/ob mouse with regard to correction of the metabolic disorder hyperglycemia. Ob/ob mice were gavaged twice daily with compound of Example 1 and the effect of the compound on levels of blood glucose were assessed and the results were compared to a concurrent control group gavaged with vehicle.
Male B6.V-Lep^ob/JBomTac (model number OB-M) mice were bred and delivered by Taconic. Animals were housed in Umea University animal facility in transparent polycarbonate cages, with wood chip bedding at a 12 h light/darkness cycle, a temperature of ˜21° C., and a relative humidity of ˜50% throughout the accommodation and dosing periods. 5 animals were housed in each cage with free access to standard rodent chow (CRM(E)Rodent, Special Diets Services, Scanbur BK, Sweden) and tap water. All animal experiments were approved by the Local Ethics Review Committee on Animal Experiments, Umea Region.
as §1
Blood glucose levels were measured by using a Glucometer Elite (Bayer) according to the manufacturer's recommendations.
as §2

With `O=C1N=C(NS(=O)(=O)c2ccc(Cl)c(Cl)c2)SC1Cc1cccc(C(F)(F)F)c1` (centres unmarked) [Example 1, 5-(3-(Trifluoromethyl)benzyl)-2-(3,4-dichlorophenyl)sulfonyliminothiazolidin-4-one] the “Effect on hyperinsulinemia (plasma insulin)” value [1] was “attenuates hyperinsulinemia”, the “BrdU incorporation relative to vehicle control (1 unit)” value ([2]; 0.5 μM) was ~0.95 units and the “BrdU incorporation relative to vehicle control (1 unit)” value ([2]; 1 μM) was ~1 units. For the same molecule, the “BrdU incorporation relative to vehicle control (1 unit)” value ([2]; 5 μM) was ~0.5 units, the “BrdU incorporation relative to vehicle control (1 unit)” value ([2]; 10 μM) was ~0.15 units and the “Effect on proliferation rate as measured by BrdU incorporation” value [2] was “dose dependent reduction in proliferation”. For the same molecule, the “Effect on TGFβ dependent collagen IV secretion” value [3] was “ameliorate the TGFβ dependent collagen IV secretion”, the “Tumor weight at the end of the experiment” value [4] was “about 130 mg” and the “Effect on phosphorylation of ACC” value [5] was “enhanced phosphorylation of ACC”. The “Effect on plasma triglycerides” value [6] was “attenuated”, the “Effect on AMPK phosphorylation” value [7] was “stimulates AMPK phosphorylation” and the “Time for AMPK phosphorylation to rise to near maximal levels” value [7] was ≤ 1 h. For the same molecule, the “Time for which AMPK phosphorylation was sustained” value [7] was 24 h and the “Effect on fed blood glucose levels” value [8] was “attenuated”.
